Measured values as given in the NIST ThermoML archive (doi:10.1021/je8006088).
Numbers after ± are expanded uncertainties.

Details: Crystal; visual observation

A Normal melting temperature of 120.6 ± 1.1 °C was found for CC(C)=CCC[C@@H](C)[C@H]1CC[C@H]2[C@@H]3CC=C4C[C@@H](O)CC[C@]4(C)[C@H]3CC[C@]12C [desmosterol] in this work.
